Test results reported in paper PMC4604765, “Eye drop delivery of pigment epithelium-derived factor-34 promotes retinal ganglion cell neuroprotection and axon regeneration” (Molecular and Cellular Neurosciences, 2015).
No end group written: not given here.

Legend:
[1] = tested on: βIII-tubulin+ retinal neurons
Description: For all in vitro experiments, adult 6–8-week-old female Sprague–Dawley rats weighing 170–220 g were used. Culture experiments included retinal cells treated with: (1), Neurobasal-A (NBA) alone (Control); and equimolar concentrations of (2), 2.16; (3) 5.4; (4), 10.8 and (5), 21.6 pM PEDF-34/-44; and (6), ciliary neurotrophic factor (CNTF: Peprotech, London, UK), as a positive control at an optimal neuroprotective/axogenic concentration of 440.5 pM, established by us previously ([Ahmed et al., 2009; Douglas et al., 2009]). […] All experiments were performed in triplicate and repeated on three independent occasions.
Mixed adult rat retinal cultures containing enriched populations of retinal neurons, including RGCs, were prepared from 6–8-week-old adult female Sprague–Dawley rats, as described previously ([Ahmed et al., 2006b, 2009, 2010; Douglas et al., 2009; Vigneswara et al., 2013]). Briefly, retinal cells were dissociated using a Papain dissociation kit according to the manufacturer's instructions (Worthington Biochemicals, Lakewood, NJ, USA). […]
The mean number of βIII-tubulin^+ neurons surviving, with neurites and the mean neurite length were quantified as described by us previously ([Vigneswara et al., 2013, 2014]). Briefly, chamber slides were anonymised by a second investigator and βIII-tubulin^+ neuronal soma and neurites quantified in 9 quadrants/well using Axiovision software (Version 4.8; Zeiss) and ImagePro (Version 6.3; Media Cybernetics, Bethesda, MD, USA). Of the 125,000 cells/well plated, the total numbers of neurons in each experiment were determined by βIII-tubulin^+ immunocytochemistry after allowing 30 min for cells to adhere to glass culture slides. […] Neurite outgrowth from at least 180 neurons/condition from the 9 wells was measured, except in control (NBA) cultures, in which a total of 108 neurons were measured.

DPFFKVPVNKLAAAVSNFGYDLYRVRSSTSPTTN [PEDF-34]
time to detection in vitreous body: < 30 min | fold increase in βIII-tubulin+ neuron numbers compared to untreated cultures ([1]; 5.4 pM, 4 days in culture): 4.5 fold | more neuroprotective than PEDF-44 in vitro ([1]; PEDF-34 versus equimolar PEDF-44, retinal cultures): 43%
